Experimental data taken from patent publication US9187518B2, “Antiangiogenic brassinosteroid compounds” (CONSEJO NACIONAL DE INVESTIGACIONES CIENTIFICAS Y TECNICAS …, priority 2011, dated 2015).

Columns and labels:
HUVEC cells = assay: Capillary tube formation on a Matrigel; assay type: cell-based, human; details: for formation of capillary tube like structures: 20 μM and 40 μM, comparative assay; for antiangiogenic activity in the tube-like formation assay in HUVEC cells: overall conclusion
Protocol: The formation of capillary tube like structures by HUVEC cells was analyzed on 24-well cell culture plates coated with an extracellular membrane matrix (Matrigel; BD Biosciences).
Matrigel was thawed at 4° C. Using precooled plates and tips, 100 μl/well of Matrigel was distributed and allowed to gelify at 37° C. for at least 30 min. Cells were seeded on the polymerized Matrigel (5 to 8×10^4 cells/well). The plate was incubated at 37° C., and tube formation was observed under a optic inverted microscope. Digital pictures were taken at different times with a camera. Tubular structures were quantified by manual counting of low power fields (25×) and inhibition percentage was expressed using untreated wells as 100%.
The formation of capillary tube-like structures by HUVEC cells was analyzed on 24-well cell culture plates coated with an extracellular membrane matrix (Matrigel; BD Biosciences). Matrigel was thawed at 4° C. Using precooled plates and tips, 100 μl/well of Matrigel was distributed and allowed to gelify at 37° C. for at least 30 min. Cells were seeded on the polymerized Matrigel (5 to 8×10^4 cells/well) in absence and presence of concentrations of 20 μM and 40 μM of each compound. The plate was incubated at 37° C., and tube formation was observed under an optic inverted microscope. Compound 1 was used as positive control.

TNF-α [1] = assay: TNF-α secretion in LPS-activated macrophages; assay type: cell-based; details: Macrophage, read-out: inhibitory concentration 50% (IC50), TNF-α secretion
IL-6 [2] = assay: IL-6 secretion in LPS-stimulated J774A.1 macrophages (ELISA); assay type: cell-based, murine; details: J774A.1 stimulated with 100 ng/ml LPS 8 h, 40 μM
Protocol: J774A.1 cells grown in 24-well plates were incubated at 37° C. with 100 ng/ml of LPS, in duplicate. After 8 h, supernatants were harvested and murine IL-6 was quantified by commercial ELISA sets (BD OptEIA™, Becton Dickinson, USA) according to manufacturer instructions.

NF-κB p65 subunit = assay: NF-κB p65 nuclear translocation in LPS-stimulated J774A.1 cells (IFI); assay type: cell-based, murine; details: J774A.1 induced with LPS 8 h, 40 μM (LPS only 79.4±1.2)
Protocol: J774A.1 cells were grown on coverslips in 24-well plates and stimulated with 100 ng/ml LPS (Sigma) in RPMI without SFB, for 8 h at 37° C.
After incubation, cells were fixed in methanol at −20° C. for 10 min, and processed for indirect immunofluorescence (IFI) with antibodies directed against the glycoprotein D (gD) of HSV-1 and/or the p65 subunit of NF-κB. After three washes with PBS, the coverslips were inverted on a drop of a 1/100 dilution of the first antibody, mouse monoclonal anti-gD and/or rabbit polyclonal anti p65 (Santa Cruz Biotechnology) and incubated for 30 min at 37° C., and then subjected to three additional washes with PBS. […]
The images obtained with a 40× magnification were imported into NIH Image J 1.34s program (designed by Wayne Rasband, NIMH, Bethesda). […] We analyzed the total and nuclear fluorescence of the individual cells and a mean fluorescence density was obtained for each. To compare the distribution of fluorescence within the cell, the results were analyzed in a spreadsheet (Excel®). The total fluorescence intensity or nuclear density was calculated as the total or nuclear average per total or nuclear area, respectively. Then, we calculated the percentage of nuclear intensity or the percentage of nuclear intensity with respect to the total intensity for each cell. […]

HSV-1 = details: murine model of HSV-1 corneal infection; previously reported; cited from earlier work
TNF-α [3] = details: human epithelial cells derived from ocular tissues; earlier work; cited from earlier work
IL-6 [4] = details: human epithelial cells derived from ocular tissues; earlier work; cited from earlier work
TNF-α [5] = details: LPS-stimulated macrophages in vitro; earlier work; cited from earlier work

## CC[C@@H](C(C)C)[C@H](O)[C@@H](O)[C@@H](C)[C@H]1CC[C@H]2[C@@H]3CCC4=CC(=O)C=C[C@]4(C)[C@H]3CC[C@]12C [Compound 2, (22S,23S)-22,23-dihydroxystigmasta-1,4-dien-3-one]
HUVEC cells
  formation of capillary tube like structures: showed inhibitory activity

## C[C@@H]1C[C@H]2[C@@H]3CCC4=CC(=O)C=C[C@]4(C)[C@@]3(F)[C@@H](O)C[C@]2(C)[C@@]1(O)C(=O)CO [DEX, Dexamethasone, reference compound]
TNF-α [1]
  IC50: 48 µM
IL-6 [2]
  IL-6 level: 637.1 ± 3.8 pg/mL
NF-κB p65 subunit
  percentage of cells positive for NF-κB translocation to the nucleus: 100%

## CC[C@@H](C(C)C)[C@H](O)[C@@H](O)[C@@H](C)[C@H]1CCC2C3C[C@H](F)C4=CC(=O)C=C[C@]4(C)C3CC[C@@]21C (stereo partly shown) [Compound IV]
HUVEC cells
  formation of capillary tube like structures: develop the formation of capillary tube-like structures in same manner than control cells without treatment
  antiangiogenic activity in the tube-like formation assay in HUVEC cells: not present

## CC[C@@H](C(C)C)[C@H](O)[C@@H](O)[C@@H](C)[C@H]1CCC2C3C[C@H](F)C4=CC(=O)CC[C@]4(C)C3CC[C@@]21C (stereo partly shown) [Compound III]
HUVEC cells
  formation of capillary tube like structures: develop the formation of capillary tube-like structures in same manner than control cells without treatment
  antiangiogenic activity in the tube-like formation assay in HUVEC cells: not present

## CC[C@@H](C(C)C)[C@H](O)[C@@H](O)[C@@H](C)[C@H]1CC[C@H]2[C@@H]3CC(=O)[C@@]4(O)C[C@@H](Br)CC[C@]4(C)[C@H]3CC[C@]12C [Compound 6b, (22S,23S)-3β-bromo-5α,22,23-trihydroxystigmastan-6-one]
HSV-1
  anti-HSV-1 activity in vivo: does not exert an anti-HSV-1 activity in vivo
  incidence of HSK: significantly decreases
TNF-α [3]
  secretion of TNF-α: modulates
IL-6 [4]
  secretion of IL-6: modulates
TNF-α [5]
  production of TNF-α: hinders
